Source: ChEMBL document CHEMBL5579840, “Optimization of diastereomeric dihydropyridines as antimalarials” (Eur J Med Chem, 2024)
Activity calls are given as the source filed them. No cut-off for these calls is given here.

Key:
Plasmodium falciparum [1] = assay: Antiplasmodial activity against chloroquine-sensitive Plasmodium falciparum 3D7; type: functional, organism-based
Plasmodium falciparum [2] = assay: Antimalarial activity against chloroquine and pyrimethamine-resistant Plasmodium falciparum W2 infected in erythroctes incubated for 72 hrs by SYBR green 1 based spectrofluorometer; type: functional, organism-based; details: for EC50: W2, 72 h
Plasmodium falciparum [3] = assay: Antimalarial activity against chloroquine,pyrimethamine,mefloquine and atovaquine-resistant Plasmodium falciparum TM90-C2B infected in erythroctes incubated for 72 hrs by SYBR green 1 based spectrofluorometer; type: functional, organism-based
Plasmodium falciparum [4] = assay: Antimalarial activity against chloroquine-sensitive Plasmodium falciparum 3D7 infected in erythroctes incubated for 72 hrs by SYBR green 1 based spectrofluorometer; type: functional, organism-based, Erythrocyte
Plasmodium falciparum [5] = assay: Antimalarial activity against chloroquine-resistant Plasmodium falciparum K1 infected in erythroctes incubated for 72 hrs by SYBR green 1 based spectrofluorometer; type: functional, organism-based, Erythrocyte
Plasmodium berghei [6] = assay: Antiplasmodial activity against Plasmodium berghei KBG-173 infected in male mouse assessed as inhibition of parasitemia at 50 mg/kg, po administered as single dose on day 1 post exposure and measured on day 3 post exposure relative to control; type: functional; details: KBG-173, 72 h, time 3 day
Plasmodium berghei [7] = assay: Antiplasmodial activity against Plasmodium berghei KBG-173 infected in male mouse assessed as inhibition of parasitemia at 50 mg/kg, po administered as single dose on day 1 post exposure and measured on day 6 post exposure relative to control; type: functional; details: KBG-173, 72 h, time 3 day
Plasmodium berghei [8] = assay: Antimalarial activity against liver stage Plasmodium berghei sporozoites expressing luciferase infected in human HepG2 cells; type: functional, organism-based
[9] = Cytotoxicity against mouse J774.A1 cells; type: toxicity, cell-based
[10] = Plasmodium falciparum, 3D7, Erythrocyte, 72 h
[11] = Plasmodium falciparum, K1, Erythrocyte, 72 h

Compound	EC50 (Plasmodium falciparum [4]; erythrocyte) [nM]	EC50 (Plasmodium falciparum [5]; erythrocyte) [nM]	inhibition in vivo at 50 mg/kg (Plasmodium berghei [6]) [%]	inhibition in vivo at 50 mg/kg (Plasmodium berghei [7]) [%]	EC50 [9] [nM]	other results
COc1cc(OC)c(NC(=O)[C@H]2c3ccccc3C(=O)N(CC(C)C)[C@@H]2c2cccs2)cc1Cl	–	–	–	–	–	EC50 (Plasmodium falciparum [1]): < 50 nM
CCOC(=O)C1=C(C)NC2=C(C(=O)OC(c3ccc(OC)c(OC)c3)C2)C1c1ccccc1C (stereo in doubt; 6B)	–	–	–	–	–	Activity (Plasmodium falciparum [2]): Active; Activity (Plasmodium falciparum [3]): Active
CCOC(=O)C1=C(C)NC2=C(C(=O)OC(c3ccc(Cl)c(OC)c3)C2)C1c1ccccc1Cl (stereo in doubt; 40B)	135	217	66	< 10	–	–
CCOC(=O)C1=C(C)NC2=C(C(=O)OC(c3ccc(Cl)c(OC)c3)C2)C1c1ccc(Cl)cc1C (stereo in doubt; 42B)	58	38.4	34	5.83	–	–
CCOC(=O)C1=C(C)NC2=C(C(=O)CC(c3ccc(OC)c(OC)c3)C2)C1c1ccc(Cl)cc1C (stereo in doubt; 37B)	14.5	15.9	< 10	< 10	–	–
CCOc1ccc(N(C(C)=O)C2=C(N(C)C)C(=O)c3ccccc3C2=O)cc1	–	–	–	–	–	EC50 (Plasmodium falciparum [1]): < 50 nM
CCOC(=O)C1=C(C)NC2=C(C(=O)OC(c3ccc(OC)c(OC)c3)C2)C1c1ccccc1Cl (stereo in doubt; 3B) [listing 1 of 2 here]	260	53.9	100	77.6	–	–
CCCC1=C(C(=O)OCC)C(c2ccc(Cl)cc2C)C2=C(CC(c3ccc(OC)c(OC)c3)CC2=O)N1 (stereo in doubt; 44B)	3.4	11.1	34	6.76	–	–
CCCC1=C(C(=O)OCC)C(c2ccc(Cl)cc2C)C2=C(CC(c3ccc(Cl)c(OC)c3)CC2=O)N1 (stereo in doubt; 46B)	10.4	19.8	< 10	< 10	–	–
CCCC1=C(C(=O)OCC)C(c2ccc(Cl)cc2C)C2=C(CC(c3ccc(Cl)c(OC)c3)OC2=O)N1 (stereo in doubt; 47B)	22.7	21.5	< 10	< 10	–	–
CCOC(=O)C1=C(C)NC2=C(C(=O)OC(c3ccc(OC)c(OC)c3)C2)C1c1ccc(Cl)cc1 (stereo in doubt; 5B)	–	–	–	–	–	Activity (Plasmodium falciparum [2]): Active; Activity (Plasmodium falciparum [3]): Active
COCC1=C(C(=O)OC)C(c2ccc(Cl)cc2C)C2=C(CC(c3ccc(OC)c(OC)c3)CC2=O)N1 (stereo in doubt; 51B) [listing 1 of 2 here]	–	–	–	–	–	Activity (Plasmodium berghei [8]): inactive
CCN(CC)Cc1cc(Nc2ccnc3cc(Cl)ccc23)ccc1O [AMODIAQUINE]	–	–	100	100	–	–
CCCC1=C(C(=O)OCC)C(c2ccccc2Cl)C2=C(CC(c3ccc(OC)c(OC)c3)OC2=O)N1 (stereo in doubt; 32B)	16.1	9.2	< 10	< 10	–	EC50 (Plasmodium falciparum [2]): < 100 nM; EC50 (Plasmodium falciparum [3]): < 100 nM
CCCC1=C(C(=O)OCC)C(c2ccccc2Cl)C2=C(CC(c3ccc(OC)c(OC)c3)CC2=O)N1 (stereo in doubt; 43B)	0.8	1.3	< 10	< 10	–	EC50 (Plasmodium falciparum [2]): 3 nM; EC50 (Plasmodium falciparum [3]): 4.4 nM
CCOC(=O)C1=C(C)NC2=C(C(=O)OC(c3ccc(OC)cc3)C2)C1c1ccccc1Cl (stereo in doubt; 26A)	> 7000	> 7000	–	–	> 20000	–
COC(=O)C1=C(C)NC2=C(C(=O)OC(c3ccc(OC)c(OC)c3)C2)C1c1ccccc1Cl (stereo in doubt; 28A)	> 8500	> 8500	–	–	> 20000	–
CCOC(=O)C1=C(C)NC2=C(C(=O)CC(c3ccc(Cl)c(OC)c3)C2)C1c1ccccc1Cl (stereo in doubt; 39B) [listing 1 of 2 here]	18.5	22.3	< 10	< 10	–	–
CCCC1=C(C(=O)OCC)C(c2ccccc2Cl)C2=C(CC(c3ccc(OC)c(OC)c3)CC2=O)N1 (stereo in doubt; 43A)	28.6	26.5	–	–	> 20000	–

Compound	EC50 (Plasmodium falciparum [4]; erythrocyte) [nM]	EC50 (Plasmodium falciparum [5]; erythrocyte) [nM]	inhibition in vivo at 50 mg/kg (Plasmodium berghei [6]) [%]	inhibition in vivo at 50 mg/kg (Plasmodium berghei [7]) [%]	EC50 [9] [nM]	other results
CCOC(=O)C1=C(C)NC2=C(C(=O)OC(c3ccc(Cl)c(OC)c3)C2)C1c1ccccc1Cl (stereo in doubt; 40A)	> 7700	2870	–	–	> 20000	–
CCOC(=O)C1=C(C)NC2=C(C(=O)CC(c3ccc(OC)c(OC)c3)C2)C1c1ccccc1Cl (stereo in doubt; 2A)	165	141	–	–	> 20000	–
CCOC(=O)C1=C(C)NC2=C(C(=O)OC(c3ccc(OC)c(OC)c3)C2)C1c1ccc(Br)cc1 (stereo in doubt; 12A)	1450	3370	–	–	> 20000	–
CCOC(=O)C1=C(C)NC2=C(C(=O)CC(c3ccc(Cl)c(OC)c3)C2)C1c1ccccc1Cl (stereo in doubt; 39B) [listing 2 of 2 here]	–	–	–	–	–	Activity (Plasmodium berghei [8]): inactive
CCCC1=C(C(=O)OCC)C(c2ccc(Cl)cc2C)C2=C(CC(c3ccc(OC)c(OC)c3)OC2=O)N1 (stereo in doubt; 45B)	5.1	3.9	< 10	< 10	–	–
CCOC(=O)C1=C(C)NC2=C(C(=O)OC(c3ccc(OC)c(OC)c3)C2)C1c1ccc(C)cc1 (stereo in doubt; 8A)	> 10000	> 10000	–	–	> 20000	–
COc1ccc(C2CC3=C(C(=O)O2)C(c2ccccc2Cl)C(C(=O)OC(C)(C)C)=C(C)N3)cc1OC (stereo in doubt; 30A)	–	> 13000	–	–	> 20000	EC50 (Plasmodium falciparum [4]; [10]): > 13000 nM
CCOC(=O)C1=C(C)NC2=C(C(=O)OC(c3cc(OC)c(OC)c(OC)c3)C2)C1c1ccccc1Cl (stereo in doubt; 54A)	322	315	–	–	> 20000	–
COCC1=C(C(=O)OC)C(c2ccc(Cl)cc2C)C2=C(CC(c3ccc(OC)c(OC)c3)CC2=O)N1 (stereo in doubt; 51B) [listing 2 of 2 here]	2.5	6.2	100	< 10	–	–
CCOC(=O)C1=C(C)NC2=C(C(=O)OC(c3ccc(OC)c(OC)c3)C2)C1c1ccccc1 (stereo in doubt; 1A)	> 7400	> 7400	–	–	> 20000	–
CCCC1=C(C(=O)OCC)C(c2ccccc2Cl)C2=C(CC(c3ccc(OC)c(OC)c3)OC2=O)N1 (stereo in doubt; 32A)	811	418	–	–	> 20000	–
CCOC(=O)C1=C(C)NC2=C(C(=O)CC(c3ccc(Cl)c(OC)c3)C2)C1c1ccc(Cl)cc1C (stereo in doubt; 41A)	550	385	–	–	> 20000	–
CCOC(=O)C1=C(C)NC2=C(C(=O)OC(c3ccc(C)cc3)C2)C1c1ccccc1Cl (stereo in doubt; 23A)	–	> 5000	–	–	> 20000	EC50 (Plasmodium falciparum [4]; [10]): > 5000 nM
CCOC(=O)C1=C(C)NC2=C(C(=O)OC(c3ccc(OC)c(OC)c3)C2)C1c1cccc(OC)c1 (stereo not drawn)	–	–	–	–	> 20000	EC50 (Plasmodium falciparum [4]; [10]): > 10000 nM; EC50 (Plasmodium falciparum [5]; [11]): > 10000 nM
CCOC(=O)C1=C(C)NC2=C(C(=O)OC(c3ccccc3OC)C2)C1c1ccccc1Cl (stereo in doubt; 24A)	–	–	–	–	> 20000	EC50 (Plasmodium falciparum [4]; [10]): > 6000 nM; EC50 (Plasmodium falciparum [5]; [11]): > 6000 nM
CCOC(=O)C1=C(C)NC2=C(C(=O)OC(c3ccc(OC)c(OC)c3)C2)C1c1ccccc1Cl (stereo in doubt; 3B) [listing 2 of 2 here]	–	–	–	–	–	Activity (Plasmodium berghei [8]): inactive; Activity (Plasmodium falciparum [2]): Active; Activity (Plasmodium falciparum [3]): Active
CCOC(=O)C1=C(C)NC2=C(C(=O)OC(c3ccc(OC)c(OC)c3)C2)C1c1ccc(Cl)cc1C (stereo in doubt; 38B)	10.6	29.1	< 10	< 10	–	–
CCOC(=O)C1=C(C)NC2=C(C(=O)CC(c3ccc(Cl)c(OC)c3)C2)C1c1ccc(Cl)cc1C (stereo in doubt; 41B)	9.4	9.7	< 10	< 10	–	–
